According to US11491120B2, “Pharmacological prophylactics against stress-induced affective disorders in females” (The Trustees of Columbia University in the City of New York, priority 2017, dated 2022):
Entries after “also recorded” stand apart in the source; their conditions may differ.

Test system: female 129S6/SvEv mice
Assay: Forced swim test (FST), immobility time, after stress
[1] = 0.025 mg/kg, 1 week prophylactic drug
[2] = 0.025 mg/kg, 1 week prophylactic drug, learned helplessness stress
[3] = 0.025 mg/kg, 3 day prophylactic drug
[4] = 0.075 mg/kg, 1 week prophylactic drug
[5] = 0.1 mg/kg, 1 week prophylactic drug
[6] = 0.3 mg/kg, 1 week prophylactic drug
[7] = 2.5 mg/kg, 1 week prophylactic drug
[8] = 10 mg/kg, 1 week prophylactic drug
[9] = Forced Swim Test Day 1, Dunnett test Sal vs. drug (0.025), 1 week prophylactic drug
[10] = Forced Swim Test Day 1, Dunnett test Sal vs. drug (0.075), 1 week prophylactic drug
[11] = Forced Swim Test Day 1, Dunnett test Sal vs. drug (0.1), 1 week prophylactic drug

## N[C@@]1(c2ccccc2Cl)CCC[C@@H](O)C1=O [(2R,6R)-HNK, (2R,6R)-hydroxynorketamine]
[1]
  * (significance), Sal vs. drug, Dunnett test: Immobility Time (min 1-6), Forced Swim Test Day 2: *** (*** p<0.0001)
  * (significance), Sal vs. drug, Dunnett test: Immobility Time (min 4), Forced Swim Test Day 2: * (* p<0.05)
  * (significance), Sal vs. drug, Dunnett test: Immobility Time (min 5), Forced Swim Test Day 2: * (* p<0.05)
  * (significance), Sal vs. drug, Dunnett test: Immobility Time Average (min 3-6), Forced Swim Test Day 2: * (* p<0.05)
  p, Sal vs. drug, Dunnett test: Immobility Time (min 1), Forced Swim Test Day 2: 0.0833
  p, Sal vs. drug, Dunnett test: Immobility Time (min 1-6), Forced Swim Test Day 2: 0.0001
  p, Sal vs. drug, Dunnett test: Immobility Time (min 2), Forced Swim Test Day 2: 0.5867
  p, Sal vs. drug, Dunnett test: Immobility Time (min 4), Forced Swim Test Day 2: 0.0383
  p, Sal vs. drug, Dunnett test: Immobility Time (min 5), Forced Swim Test Day 2: 0.0346
  p, Sal vs. drug, Dunnett test: Immobility Time (min 6), Forced Swim Test Day 2: 0.2356
  p, Sal vs. drug, Dunnett test: Immobility Time Average (min 3-6), Forced Swim Test Day 2: 0.0229
[2]
  * (significance), Sal vs. drug, Fisher's PLSD: Immobility Time Average (min 3-6), Forced Swim Test Day 2: *** (*** p<0.0001)
  P, Sal vs. drug, Fisher's PLSD: Immobility Time Average (min 3-6), Forced Swim Test Day 2: <0.0001
0.025 mg/kg, 24 hour prophylactic drug
  p, Sal vs. drug, t-test: Immobility Time Average (min 3-6), Forced Swim Test Day 2: 0.1367
0.025 mg/kg, 24 hours before CFC, female mice
  Immobility on FST Day 2 vs saline: not prophylactically effective when administered 24 h before a stressor; also recorded: did not alter immobility in the FST
[3]
  * (significance), Sal vs. drug, Fisher's PLSD: Immobility Time (min 1-6), Forced Swim Test Day 2: *** (*** p<0.0001)
  * (significance), Sal vs. drug, Fisher's PLSD: Immobility Time Average (min 3-6), Forced Swim Test Day 2: ** (** p<0.01)
  p, Sal vs. drug, Fisher's PLSD: Immobility Time (min 1-6), Forced Swim Test Day 2: <0.0001
  p, Sal vs. drug, Fisher's PLSD: Immobility Time Average (min 3-6), Forced Swim Test Day 2: 0.0046
[4]
  p, Sal vs. drug, Dunnett test: Immobility Time (min 1), Forced Swim Test Day 2: 0.4238
  p, Sal vs. drug, Dunnett test: Immobility Time (min 1-6), Forced Swim Test Day 2: 0.5537
  p, Sal vs. drug, Dunnett test: Immobility Time (min 2), Forced Swim Test Day 2: 0.9312
  p, Sal vs. drug, Dunnett test: Immobility Time (min 4), Forced Swim Test Day 2: 0.9993
  p, Sal vs. drug, Dunnett test: Immobility Time (min 5), Forced Swim Test Day 2: >0.9999
  p, Sal vs. drug, Dunnett test: Immobility Time (min 6), Forced Swim Test Day 2: 0.9760
  p, Sal vs. drug, Dunnett test: Immobility Time Average (min 3-6), Forced Swim Test Day 2: 0.8615
[5]
  p, Sal vs. drug, Dunnett test: Immobility Time (min 1), Forced Swim Test Day 2: 0.9995
  p, Sal vs. drug, Dunnett test: Immobility Time (min 1-6), Forced Swim Test Day 2: 0.9871
  p, Sal vs. drug, Dunnett test: Immobility Time (min 2), Forced Swim Test Day 2: 0.2508
  p, Sal vs. drug, Dunnett test: Immobility Time (min 4), Forced Swim Test Day 2: 0.9994
  p, Sal vs. drug, Dunnett test: Immobility Time (min 5), Forced Swim Test Day 2: 0.8037
  p, Sal vs. drug, Dunnett test: Immobility Time (min 6), Forced Swim Test Day 2: 0.8172
  p, Sal vs. drug, Dunnett test: Immobility Time Average (min 3-6), Forced Swim Test Day 2: 0.9994
[6]
  p, Sal vs. drug, Dunnett test: Immobility Time (min 1), Forced Swim Test Day 2: 0.9998
  p, Sal vs. drug, Dunnett test: Immobility Time (min 1-6), Forced Swim Test Day 2: 0.9996
  p, Sal vs. drug, Dunnett test: Immobility Time (min 2), Forced Swim Test Day 2: 0.9999
  p, Sal vs. drug, Dunnett test: Immobility Time (min 4), Forced Swim Test Day 2: 0.9883
  p, Sal vs. drug, Dunnett test: Immobility Time (min 5), Forced Swim Test Day 2: 0.9991
  p, Sal vs. drug, Dunnett test: Immobility Time (min 6), Forced Swim Test Day 2: 0.9991
  p, Sal vs. drug, Dunnett test: Immobility Time Average (min 3-6), Forced Swim Test Day 2: 0.9994
[7]
  p, Sal vs. drug, Dunnett test: Immobility Time (min 1), Forced Swim Test Day 2: 0.4807
  p, Sal vs. drug, Dunnett test: Immobility Time (min 1-6), Forced Swim Test Day 2: 0.6589
  p, Sal vs. drug, Dunnett test: Immobility Time (min 2), Forced Swim Test Day 2: 0.9193
  p, Sal vs. drug, Dunnett test: Immobility Time (min 4), Forced Swim Test Day 2: 0.9991
  p, Sal vs. drug, Dunnett test: Immobility Time (min 5), Forced Swim Test Day 2: >0.9999
  p, Sal vs. drug, Dunnett test: Immobility Time (min 6), Forced Swim Test Day 2: 0.9995
  p, Sal vs. drug, Dunnett test: Immobility Time Average (min 3-6), Forced Swim Test Day 2: 0.9507
[8]
  p, Sal vs. drug, Dunnett test: Immobility Time (min 1), Forced Swim Test Day 2: 0.9997
  p, Sal vs. drug, Dunnett test: Immobility Time (min 1-6), Forced Swim Test Day 2: 0.9950
  p, Sal vs. drug, Dunnett test: Immobility Time (min 2), Forced Swim Test Day 2: 0.9993
  p, Sal vs. drug, Dunnett test: Immobility Time (min 4), Forced Swim Test Day 2: 0.9955
  p, Sal vs. drug, Dunnett test: Immobility Time (min 5), Forced Swim Test Day 2: 0.9991
  p, Sal vs. drug, Dunnett test: Immobility Time (min 6), Forced Swim Test Day 2: 0.9999
  p, Sal vs. drug, Dunnett test: Immobility Time Average (min 3-6), Forced Swim Test Day 2: 0.9997
[9]
  * (significance), Immobility Time (min 1-6): ** (** p<0.01)
  p, Immobility Time (min 1): 0.9996
  p, Immobility Time (min 1-6): 0.0090
  p, Immobility Time (min 3): 0.9637
  p, Immobility Time (min 4): 0.8106
  p, Immobility Time (min 5): 0.8892
  p, Immobility Time (min 6): 0.6406
  p, Immobility Time Average (min 3-6): 0.7004
[10]
  * (significance), Immobility Time (min 1): ** (** p<0.01)
  p, Immobility Time (min 1): 0.0017
  p, Immobility Time (min 1-6): 0.2188
  p, Immobility Time (min 3): 0.9250
  p, Immobility Time (min 4): 0.9750
  p, Immobility Time (min 5): 0.8877
  p, Immobility Time (min 6): 0.9994
  p, Immobility Time Average (min 3-6): 0.9526
[11]
  p, Immobility Time (min 1): 0.9996
  p, Immobility Time (min 1-6): 0.0673
  p, Immobility Time (min 3): 0.4888
  p, Immobility Time (min 4): 0.3257
  p, Immobility Time (min 5): 0.2856
  p, Immobility Time (min 6): 0.9218
